Our source for the IC50 values is patent US10273224B2, “Substituted pyrimidine compounds, compositions and medicinal applications thereof” (JUBILANT BIOSYS LIMITED, priority 2013, dated 2019).

In this test the target is T1, EGFR (L858R & T790M) (Homo sapiens, UniProt P00533, L858R/T790M).
T1 construct: GST; purchased Proqinase
T1 sequence (P00533 25-1210 T790M/L858R): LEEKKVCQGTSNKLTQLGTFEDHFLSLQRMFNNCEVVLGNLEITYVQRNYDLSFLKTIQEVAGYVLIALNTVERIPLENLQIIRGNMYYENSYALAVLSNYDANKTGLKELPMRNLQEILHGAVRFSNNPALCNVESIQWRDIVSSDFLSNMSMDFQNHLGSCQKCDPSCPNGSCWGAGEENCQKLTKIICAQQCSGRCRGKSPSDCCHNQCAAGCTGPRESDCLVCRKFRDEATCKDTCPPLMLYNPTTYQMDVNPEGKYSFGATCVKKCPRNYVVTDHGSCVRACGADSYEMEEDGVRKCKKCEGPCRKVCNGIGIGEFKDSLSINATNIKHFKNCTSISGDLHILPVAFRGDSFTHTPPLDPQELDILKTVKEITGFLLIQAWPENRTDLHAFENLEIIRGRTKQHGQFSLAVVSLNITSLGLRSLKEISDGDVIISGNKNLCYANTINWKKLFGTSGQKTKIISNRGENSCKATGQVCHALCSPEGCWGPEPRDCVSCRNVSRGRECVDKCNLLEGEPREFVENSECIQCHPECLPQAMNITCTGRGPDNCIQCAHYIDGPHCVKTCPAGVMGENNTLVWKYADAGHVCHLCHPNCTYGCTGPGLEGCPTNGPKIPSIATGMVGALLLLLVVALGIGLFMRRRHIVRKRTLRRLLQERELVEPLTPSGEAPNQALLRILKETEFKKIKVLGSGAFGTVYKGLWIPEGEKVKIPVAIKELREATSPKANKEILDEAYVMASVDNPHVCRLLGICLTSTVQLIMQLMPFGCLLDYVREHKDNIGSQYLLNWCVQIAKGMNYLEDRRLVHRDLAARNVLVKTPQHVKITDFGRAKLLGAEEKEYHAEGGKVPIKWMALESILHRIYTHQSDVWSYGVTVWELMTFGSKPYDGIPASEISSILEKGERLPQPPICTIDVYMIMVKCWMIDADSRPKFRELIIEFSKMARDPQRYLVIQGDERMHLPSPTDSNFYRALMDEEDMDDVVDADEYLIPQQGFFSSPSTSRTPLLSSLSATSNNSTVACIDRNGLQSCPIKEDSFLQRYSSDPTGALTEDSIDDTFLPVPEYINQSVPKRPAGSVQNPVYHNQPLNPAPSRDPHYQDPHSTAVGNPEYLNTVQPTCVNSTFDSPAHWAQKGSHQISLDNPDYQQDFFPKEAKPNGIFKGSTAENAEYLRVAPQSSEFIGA
Description: EGFR (L858R & T790M) inhibition assay, HTRF method. Conditions: biochemical HTRF; EGFR (T790M/L858R) 2.5 nM, ATP 5 μM, 60 min room temperature. The method, then: Example 25: Biological Activity: EGFR T790M Assay Protocol
The objective of the experiment is to find the IC50 for the compounds using HTRF method.
Reagents for Enzyme Assay:
1. Enzyme Assay Buffer: 60 mM HEPES (pH 7.4), 50 mM NaCl, 20 mM MgCl2, 5 mM MnCl2, filter using 0.2 µm pore size, store at 4° C.
Supplements (add fresh to the enzyme buffer): Make 1M DTT stock, 5% BSA stock and 0.1M Na3OV4 stored at 4° C. Enzyme assay buffer 50 ml, 1 M DTT 100 μl, 5% BSA 500 μl, 0.1M Na3OV4 50 μl.
2. GST-hEGFR (L858R), active: EGFR (T790M/L858R), active (Proqinase), 3.6 μM stock; 2.5 nM in final assay.
3. Gastrin Precusor-Biotinylated: Gastrin precursor (Tyr87) biotinylated peptide (EEAY*GWM), Cell Signaling Tech 1310, Lot-7, Want final 0.5 μM in assay
4. ATP: 10 mM stock in 100 μl Enzyme assay buffer pH 7.4 prepared freshly, want 5 μM in final assay.
5. Test compounds: Dissolve powders in 100% DMSO to a final stock concentration of 10 mM (volume in μL to add for 10 mM=mg powder×10^5/MW). Final comp concentration in the assay plate is starting at 10 μM.
1. HTRF buffer: 50 mM Tris-HCl, pH-7.5, 100 mM NaCl, 0.1% BSA, 0.05% Tween20, 0.5 mM EDTA, filter using 0.2 µm pore size, store at 4° C.
Phycolink® Streptavidin-Allophycocyanin (SA-APC) Prozyme, Cat. #PJ25S, Lot #896 085, 2.06 mg/mL, APC concentration is 11.6 μM, streptavidin concentration is 15.5 μM. Want 12 nM final in assay (based on streptavidin concentration).
2. Europium-W1024-PT-66 Anti Phospho Tyrosine Antibody: Perkin Elmer (AD0068), monoclonal IgG1 that recognizes phospho tyrosine peptide 100 μg/ml stock. Want 0.1 nM final in assay.
• 1. Make the compound dilution by TECAN as per the above scheme. • 2. Add 16 μl of diluted compound to the assay plate by using TECAN • 3. Add 10 μl of enzyme mix to each well except mins. • 4. Add 20 μl of substrate and ATP mix into each well of the assay plate manually. • 5. Incubate the plate at room temperature for 60 min with shaking. • 6. Meanwhile prepare the HTRF mix and add 75 μl to the HTRF plate. • 7. When the incubation is over, transfer 10 μl of the reaction mixture to the HTRF assay plate and incubate for 30 min at room temperature with shaking. • 8. Take the reading in Pherastar (ext 337 nm, em 665 & 620 nm). • 9. Analyze the results using Graphpad prism after calculation the z factor, signal window and % inhibition to get the IC50.
Compounds having IC50<10 nM are designated as “A”; 10-100 nM are designated as “B”; and >100 nM as “C”.
A general note: Time-resolved FRET reads energy transfer from a long-lived donor to a nearby acceptor.
Usually IC50 stands for the concentration that gives 50% inhibition. Consider `C=CC(=O)Nc1cccc(Nc2nc(Nc3cnn(C)c3)nc(C)c2Cl)c1` [Compound I-59, N-(3-((5-chloro-6-methyl-2-((1-methyl-1H-pyrazol-4-yl)amino)pyrimidin-4-yl)amino)phenyl)acrylamide], for which the half-maximal inhibitory concentration (IC50) is over 100 nM. In the case of `C=CC(=O)N1CCC(Oc2nc(Nc3cnn(C)c3)ncc2Cl)C1` (single isomer, unassigned) [II-11 (Enantiomer 2), 1-(3-((5-chloro-2-((1-methyl-1H-pyrazol-4-yl)amino)pyrimidin-4-yl)oxy)pyrrolidin-1-yl)prop-2-en-1-one], the half-inhibitory concentration (IC50) is over 100 nM. The value for `C=CC(=O)NC1CCCC(Nc2nc(Nc3cn(C)nc3Cl)ncc2Cl)C1` (stereo not shown) [Compound I-95, N-(3-((5-chloro-2-((3-chloro-1-methyl-1H-pyrazol-4-yl)amino)pyrimidin-4-yl)amino)cyclohexyl)acrylamide] was 10 to 100 nM; that for `C=CC(=O)N[C@@H]1CCCC[C@H](Nc2nc(Nc3cnn(C)c3)ncc2Cl)C1` (single isomer, unassigned) [I-113 (Isomer 2)] was 10 to 100 nM. Consider `Cc1cc(Nc2ncc(Cl)c(NC3CCCC(NC(=O)/C=C/CN(C)C)C3)n2)sn1` (stereo not shown) [Compound I-115, (E)-N-(3-((5-chloro-2-((3-methylisothiazol-5-yl)amino)pyrimidin-4-yl)amino)cyclohexyl)-4-(dimethylamino)but-2-enamide], for which the IC50 is over 100 nM. Turning to `C=CC(=O)Nc1cccc(Oc2nc(Nc3cnn(CCN(C)C)c3)ncc2Cl)c1` [Compound I-80, N-(3-((5-chloro-2-((1-(2-(dimethylamino)ethyl)-1H-pyrazol-4-yl)amino)pyrimidin-4-yl)oxy)phenyl)acrylamide], the 50% inhibitory concentration (IC50) is 10 to 100 nM. As to `C=CC(=O)Nc1cccc(Nc2nc(Nc3cnn(C4CCNC(=O)C4)c3)ncc2Cl)c1` (stereo not shown) [Compound I-43, N-(3-((5-chloro-2-((1-(2-oxopiperidin-4-yl)-1H-pyrazol-4-yl)amino)pyrimidin-4-yl)amino)phenyl)acrylamide], the IC50 lay in the range of 10 to 100 nM.

For `C=CC(=O)Nc1cc(Cl)cc(Nc2nc(Nc3cnn(C)c3)ncc2Cl)c1` [Compound I-35, N-(3-chloro-5-((5-chloro-2-((1-methyl-1H-pyrazol-4-yl)amino)pyrimidin-4-yl)amino)phenyl)acrylamide], the 50% inhibitory concentration (IC50) is under 10 nM. For `C=CC(=O)Nc1ccnc(Nc2nc(Nc3cnn(C)c3)ncc2Cl)c1` [Compound I-116, N-(2-((5-chloro-2-((1-methyl-1H-pyrazol-4-yl)amino)pyrimidin-4-yl)amino)pyridin-4-yl)acrylamide], the IC50 was in the range of 10 to 100 nM. Take `C=CC(=O)Nc1cccc(Nc2nc(Nc3cnn(C)c3)ncc2C2CC2)c1` [Compound I-76, N-(3-((5-cyclopropyl-2-((1-methyl-1H-pyrazol-4-yl)amino)pyrimidin-4-yl)amino)phenyl)acrylamide]: the IC50 lay within 10 to 100 nM. Consider `C=CC(=O)Nc1cc(Nc2nc(Nc3cnn(C)c3)ncc2Cl)c(F)cc1F` [Compound I-68, N-(5-((5-chloro-2-((1-methyl-1H-pyrazol-4-yl)amino)pyrimidin-4-yl)amino)-2,4-difluorophenyl)acrylamide], for which the IC50 was in the range of 10 to 100 nM.

With `CN1CCC(n2cc(Nc3ncc(Cl)c(Nc4cccc(NC(=O)C=C5CCC(F)(F)CC5)c4)n3)cn2)CC1` [Compound I-25, N-(3-((5-chloro-2-((1-(1-methylpiperidin-4-yl)-1H-pyrazol-4-yl)amino)pyrimidin-4-yl)amino)phenyl)-2-(4,4-difluorocyclohexylidene)acetamide], the half-inhibitory concentration (IC50) is over 100 nM. With `C=CC(=O)Nc1cccc(Nc2nc(Nc3cn(C)cn3)ncc2Cl)c1` [Compound I-60, N-(3-((5-chloro-2-((1-methyl-1H-imidazol-4-yl)amino)pyrimidin-4-yl)amino)phenyl)acrylamide], the IC50 fell in the range of 10 to 100 nM. With `C=CC(=O)Nc1cccc(Oc2nc(Nc3cnn(C(C)C)c3)ncc2Cl)c1` [Compound I-79, N-(3-((5-chloro-2-((1-isopropyl-1H-pyrazol-4-yl)amino)pyrimidin-4-yl)oxy)phenyl)acrylamide], the IC50 was in the range of 10 to 100 nM. For the molecule `C=CC(=O)Nc1cccc(Nc2nc(Nc3cnn(C4CCN(CCF)CC4)c3)ncc2Cl)c1` [Compound I-16, N-(3-((5-chloro-2-((1-(1-(2-fluoroethyl)piperidin-4-yl)-1H-pyrazol-4-yl)amino)pyrimidin-4-yl)amino)phenyl)acrylamide], the 50% inhibitory concentration (IC50) was under 10 nM. Regarding `C=CC(=O)N[C@H]1CCC[C@H](Nc2nc(Nc3cnn(C)c3)ncc2Cl)C1` (single isomer, unassigned) [I-107 (Enantiomer 2)], the IC50 was over 100 nM. Then `C=CC(=O)Nc1cccc(Nc2nc(Nc3c(C)nn(C)c3C)ncc2Cl)c1` [Compound I-11, N-(3-((5-chloro-2-((1,3,5-trimethyl-1H-pyrazol-4-yl)amino)pyrimidin-4-yl)amino)phenyl)acrylamide], with over 100 nM; and `C=CC(=O)Nc1cccc(Nc2nc(Nc3cnn(C)c3)ncc2C)c1` [Compound I-15, N-(3-((5-methyl-2-((1-methyl-1H-pyrazol-4-yl)amino)pyrimidin-4-yl)amino)phenyl)acrylamide], with 10 to 100 nM. Then `C=CC(=O)Nc1cc(Nc2nc(Nc3cnn(C4CCN(C)CC4)c3)ncc2Cl)c(F)cc1F` [Compound I-69, N-(5-((5-chloro-2-((1-(1-methylpiperidin-4-yl)-1H-pyrazol-4-yl)amino)pyrimidin-4-yl)amino)-2,4-difluorophenyl)acrylamide], with under 10 nM; and `C=CC(=O)Nc1cc(Nc2nc(Nc3cnn(C)c3)ncc2Cl)ccc1OC1CCOC1` (stereo not shown) [Compound I-55, N-(5-((5-chloro-2-((1-methyl-1H-pyrazol-4-yl)amino)pyrimidin-4-yl)amino)-2-((tetrahydrofuran-3-yl)oxy)phenyl)acrylamide], with over 100 nM; and `C=CC(=O)N[C@@H]1CCC[C@@H](Nc2nc(Nc3cnn(C)c3)ncc2Cl)C1` (single isomer, unassigned) [I-106 (Enantiomer 1)], with over 100 nM. For `C=CC(=O)NC1CCCC(Oc2nc(Nc3cnn(C)c3)ncc2Cl)C1` (single isomer, unassigned) [I-88 (Isomer 1), N-(3-((5-chloro-2-((1-methyl-1H-pyrazol-4-yl)amino)pyrimidin-4-yl)oxy)cyclohexyl)acrylamide], the IC50 was over 100 nM. In the case of `C=CC(=O)Nc1cccc(Nc2nc(Nc3ncc(C)s3)ncc2Cl)c1` [Compound I-123, N-(3-((5-chloro-2-((5-methylthiazol-2-yl)amino)pyrimidin-4-yl)amino)phenyl)acrylamide], the IC50 is 10 to 100 nM. As to `C=CC(=O)Nc1cccc(Nc2nc(Nc3cc(C)ns3)ncc2Cl)c1` [Compound I-122, N-(3-((5-chloro-2-((3-methylisothiazol-5-yl)amino)pyrimidin-4-yl)amino)phenyl)acrylamide], the half-inhibitory concentration (IC50) was under 10 nM.

As for `C=CC(=O)NC1CCCC(Nc2nc(Nc3cc(Cl)n(C)n3)ncc2Cl)C1` (stereo not shown) [Compound I-97, N-(3-((5-chloro-2-((5-chloro-1-methyl-1H-pyrazol-3-yl)amino)pyrimidin-4-yl)amino)cyclohexyl)acrylamide], the 50% inhibitory concentration (IC50) is over 100 nM. The value for `CN(C)C/C=C/C(=O)NCC1CCCC(Nc2nc(Nc3cnn(C)c3)ncc2Cl)C1` (stereo not shown) [Compound I-109, (E)-N-((3-((5-chloro-2-((1-methyl-1H-pyrazol-4-yl)amino)pyrimidin-4-yl)amino)cyclohexyl)methyl)-4-(dimethylamino)but-2-enamide] was over 100 nM. For `C=CC(=O)Nc1cccc(Nc2nc(Nc3cnn(CC4CC4)c3)ncc2Cl)c1` [Compound I-7, N-(3-((5-chloro-2-((1-(cyclopropylmethyl)-1H-pyrazol-4-yl)amino)pyrimidin-4-yl)amino)phenyl)acrylamide], the IC50 lay in the range of 10 to 100 nM.

Take `C=CS(=O)(=O)Nc1cc(Nc2nc(Nc3cnn(C4CCN(C)CC4)c3)ncc2Cl)ccc1F` [Compound I-64, N-(5-((5-chloro-2-((1-(1-methylpiperidin-4-yl)-1H-pyrazol-4-yl)amino)pyrimidin-4-yl)amino)-2-fluorophenyl)ethenesulfonamide]: the IC50 was in the range of 10 to 100 nM.
